Experimental data taken from ChEMBL document CHEMBL1201862, “PubChem BioAssay data set” (2004).
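Where inhibition never reached the appropriate level, the endpoint shown equals the highest concentration tested. Otherwise, values were interpolated linearly from a five-concentration, 48-hour dose response in 96-well plates. The concentration for 50% growth inhibition is given as GI50.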 Activity calls are given as the source filed them. No stated cut-off is given here; in the data, active = GI50 up to about 1.1 µM and inactive = higher.

What was measured:
Test in all cases: inhibition of tumour cell growth, NCI panel, 48 h
[1] = system: U-251
[2] = system: SR
[3] = system: SNB-75
[4] = system: SW-620
[5] = system: HOP-92
[6] = system: OVCAR-5
[7] = system: NCI-H522
[8] = system: IGROV-1
[9] = system: SK-OV-3
[10] = system: RXF 393
[11] = system: HCC 2998
[12] = system: OVCAR-3
[13] = system: ACHN
[14] = system: HT-29
[15] = system: NCI-H460
[16] = system: CCRF-CEM
[17] = system: NCI-H226
[18] = system: T47D
[19] = system: NCI/ADR-RES
[20] = system: DU-145

Structure (SMILES)	GI50 [1]	GI50 [2]	GI50 [3]	GI50 [4]	GI50 [5]	GI50 [6]	GI50 [7]	GI50 [8]	GI50 [9]	GI50 [10]	GI50 [11]	GI50 [12]	GI50 [13]	GI50 [14]	GI50 [15]	GI50 [16]	GI50 [17]	GI50 [18]	GI50 [19]	GI50 [20]
CSc1nc(NC2OCC(OC(C)=O)C(OC(C)=O)C2OC(C)=O)c(/N=C\C=N\c2c(NC3OCC(OC(C)=O)C(OC(C)=O)C3OC(C)=O)nc(SC)n(C)c2=O)c(=O)n1C (configuration not stated)	> 100 µM (inactive)	> 100 µM (inactive)	> 100 µM (inactive)	> 100 µM (inactive)	> 100 µM (inactive)	> 100 µM (inactive)	> 100 µM (inactive)	> 100 µM (inactive)	> 100 µM (inactive)	> 100 µM (inactive)	> 100 µM (inactive)	> 100 µM (inactive)	> 100 µM (inactive)	> 100 µM (inactive)	> 100 µM (inactive)					
COc1cc(/C=C\c2ccccc2)cc(OC)c1OC	4.15 µM (inactive)	3.71 µM (inactive)	2.1 µM (inactive)	2.84 µM (inactive)	3.53 µM (inactive)	10.3 µM (inactive)	2.67 µM (inactive)	4.65 µM (inactive)		1.84 µM (inactive)	11.8 µM (inactive)	2.29 µM (inactive)	6.98 µM (inactive)	2.75 µM (inactive)	2.55 µM (inactive)	2.99 µM (inactive)	4.2 µM (inactive)			
Cc1ccc(C(=O)O/N=C2/CCC/C2=C\c2ccccc2)cc1	> 100 µM (inactive)	> 100 µM (inactive)	69.3 µM (inactive)	> 100 µM (inactive)	> 100 µM (inactive)	> 100 µM (inactive)	> 100 µM (inactive)	> 100 µM (inactive)	> 100 µM (inactive)	> 100 µM (inactive)	> 100 µM (inactive)	> 100 µM (inactive)	> 100 µM (inactive)	> 100 µM (inactive)	> 100 µM (inactive)	> 100 µM (inactive)	> 100 µM (inactive)			
c1coc(CNc2[nH]cnc3nncc2-3)c1	> 100 µM (inactive)	57.1 µM (inactive)	38.5 µM (inactive)	> 100 µM (inactive)	35.8 µM (inactive)	> 100 µM (inactive)	> 100 µM (inactive)	> 100 µM (inactive)	> 100 µM (inactive)	> 100 µM (inactive)	> 100 µM (inactive)	> 100 µM (inactive)	> 100 µM (inactive)	> 100 µM (inactive)	> 100 µM (inactive)	> 100 µM (inactive)	> 100 µM (inactive)			
C/C(=N\Nc1nc2ccccc2n1C)c1cnccn1	0.339 µM (active)	0.0649 µM (active)	5.13 µM (inactive)	0.0418 µM (active)	0.227 µM (active)		0.129 µM (active)	0.0435 µM (active)	0.292 µM (active)	1.23 µM (inactive)	1.33 µM (inactive)	0.0326 µM (active)	0.065 µM (active)	0.0418 µM (active)	0.223 µM (active)	0.0513 µM (active)	0.256 µM (active)	0.0702 µM (active)	0.164 µM (active)	
Cc1nc(C(N)=S)sc1/C(CC(=O)C(=O)Nc1cccc2ccc(O)cc12)=N\NC(=O)c1ccncc1	68.5 µM (inactive)		> 100 µM (inactive)	> 100 µM (inactive)	31.6 µM (inactive)	> 100 µM (inactive)	34.5 µM (inactive)	53.7 µM (inactive)	> 100 µM (inactive)	> 100 µM (inactive)	59.8 µM (inactive)	34 µM (inactive)	> 100 µM (inactive)	37.8 µM (inactive)	22.9 µM (inactive)	33.4 µM (inactive)	61.1 µM (inactive)		> 100 µM (inactive)	55.3 µM (inactive)
OCC[N+]12CCCN1CCC2	> 100 µM (inactive)	> 100 µM (inactive)	61.7 µM (inactive)	> 100 µM (inactive)	> 100 µM (inactive)	> 100 µM (inactive)	> 100 µM (inactive)	> 100 µM (inactive)	> 100 µM (inactive)	> 100 µM (inactive)	> 100 µM (inactive)	> 100 µM (inactive)	> 100 µM (inactive)	> 100 µM (inactive)	> 100 µM (inactive)	> 100 µM (inactive)	> 100 µM (inactive)			
COc1cc2c(cc1OC)[C@H]1CN3CCC[C@H]3C=C1c1ccc(OC)c(O)c1-2	0.000605 µM (active)	0.00059 µM (active)	0.000566 µM (active)	0.000499 µM (active)	< 0.0001 µM (active)	0.000653 µM (active)	0.000487 µM (active)	0.000661 µM (active)	< 0.0001 µM (active)	0.00667 µM (active)	0.0029 µM (active)	< 0.0001 µM (active)	0.000566 µM (active)	0.000656 µM (active)	0.000558 µM (active)	0.000422 µM (active)	0.000736 µM (active)	0.00337 µM (active)		0.00342 µM (active)
